Laboratory results: patent US20100267561A1, “HERBICIDAL PYRIDAZINONE DERIVATIVES” (priority 2007, published 2010)

Columns and labels:
Assay in all cases: Test B pre-/postemergence plant response
Format in all cases: in vivo
[1] = system: Italian ryegrass (Lolium multiflorum); settings: for Ryegrass, Italian plant response rating: 8 g ai/ha
Procedure, shortened: (§1)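 Seeds were sown and sprayed preemergence, while plants at 2 to 18 cm (1- to 4-leaf stage) got postemergence sprays. Compounds were formulated in a non-phytotoxic solvent mixture with surfactant. After 13 to 15 days in a greenhouse, injury was rated visually against untreated controls, 0 (no effect) to 100 (complete control).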

[2] = system: Russian thistle (Salsola iberica); settings: Preemergence
Procedure, shortened: as §1

[3] = system: common (oilseed) sunflower (Helianthus annuus); settings: Preemergence
Procedure, shortened: as §1

[4] = system: common ragweed (Ambrosia elation); settings: for Ragweed plant response rating: 8 g ai/ha
Procedure, shortened: as §1

corn (Zea mays) = settings: for Corn plant response rating: 8 g ai/ha
Procedure, shortened: as §1

[5] = system: eastern black (E.B.) nightshade (Solanum ptycanthum); settings: Preemergence
Procedure, shortened: as §1

[6] = system: giant foxtail (Setaria faberii); settings: for Foxtail, Giant plant response rating: 8 g ai/ha
Procedure, shortened: as §1

[7] = system: goosegrass (Eleusine indica); settings: for Goosegrass plant response rating: 8 g ai/ha
Procedure, shortened: as §1

[8] = system: green foxtail (Setaria viridis); settings: for Foxtail, Green plant response rating: 8 g ai/ha
Procedure, shortened: as §1

[9] = system: johnsongrass (Sorghum halepense); settings: for Johnsongrass plant response rating: 8 g ai/ha
Procedure, shortened: as §1

kochia (Kochia scoparia) = settings: for Kochia plant response rating: 8 g ai/ha
Procedure, shortened: as §1

[10] = system: pigweed (Amaranthus retroflexus); settings: for Pigweed plant response rating: 8 g ai/ha
Procedure, shortened: as §1

[11] = system: surinam grass (Brachiaria decumbens); settings: for Surinam Grass plant response rating: 8 g ai/ha
Procedure, shortened: as §1

[12] = system: yellow nutsedge (Cyperus esculentus); settings: for Nutsedge, Yellow plant response rating: 8 g ai/ha
Procedure, shortened: as §1

[13] = Postemergence, 31 g ai/ha, scale 0 to 100, 0 no effect, 100 complete control
[14] = Postemergence, 62 g ai/ha, scale 0 to 100
[15] = Postemergence, 125 g ai/ha, scale 0 to 100
[16] = Postemergence, 250 g ai/ha, scale 0 to 100
[17] = Preemergence, 31 g ai/ha, 0 to 100 scale, 0 no effect, 100 complete control
[18] = Preemergence, 62 g ai/ha, scale 0 to 100
[19] = Preemergence, 125 g ai/ha, scale 0 to 100
[20] = Preemergence, 250 g ai/ha, scale 0 to 100
[21] = 31 g ai/ha, 0 to 100 scale, 0 no effect, 100 complete control
[22] = Postemergence, 16 g ai/ha, scale 0 to 100
[23] = Postemergence, 62 g ai/ha, scale 0 to 100, 0 no effect, 100 complete control
[24] = Preemergence, 16 g ai/ha, scale 0 to 100 (0 no effect, 100 complete control)
[25] = Preemergence, 31 g ai/ha, scale 0 to 100 (0 no effect, 100 complete control)
[26] = 16 g ai/ha, scale 0 to 100 (0 no effect, 100 complete control)
[27] = 31 g ai/ha, scale 0 to 100 (0 no effect, 100 complete control)

CCc1cc(-c2ccc(C(F)(F)F)cc2)nn1-c1c(O)c(C)nn(C)c1=O [Compound 16]
75: Plant response rating, Goosegrass [7, 15]
70: Plant response rating, Foxtail, Giant [6, 20] | Plant response rating, Johnsongrass [9, 18]
90: Plant response rating, Surinam Grass [11, 13]
80: Plant response rating, Goosegrass [7, 16]
40: Plant response rating, Foxtail, Giant [6, 19]
55: Plant response rating, Surinam Grass [11, 18]
65: Plant response rating, Goosegrass [7, 14] | Plant response rating, Kochia (kochia (Kochia scoparia); [14])
85: Plant response rating, Foxtail, Giant [6, 13]
95: Plant response rating, Foxtail, Green [8, 13] | Plant response rating, Surinam Grass [11, 19]
60: Plant response rating, Goosegrass [7, 13] | Plant response rating, Goosegrass [7, 20]
20: Plant response rating, Nutsedge, Yellow [12, 20]
98: Plant response rating, Corn (corn (Zea mays); [13]) | Plant response rating, Corn (corn (Zea mays); [14]) | Plant response rating, Foxtail, Giant [6, 14] | Plant response rating, Foxtail, Green [8, 14] | Plant response rating, Johnsongrass [9, 13] | Plant response rating, Kochia (kochia (Kochia scoparia); [15])
25: Plant response rating, Johnsongrass [9, 17]
0: Plant response rating, Russian Thistle [2, 21] | Plant response rating, Russian Thistle ([2]; 62 g ai/ha, scale 0 to 100) | Plant response rating, Russian Thistle ([2]; 125 g ai/ha, scale 0 to 100) | Plant response rating, Russian Thistle ([2]; 250 g ai/ha, scale 0 to 100) | Plant response rating, Sunflower [3, 21] | Plant response rating, Sunflower ([3]; 62 g ai/ha, scale 0 to 100) | Plant response rating, Sunflower ([3]; 125 g ai/ha, scale 0 to 100) | Plant response rating, Sunflower ([3]; 250 g ai/ha, scale 0 to 100) | Plant response rating, Ragweed [4, 13] | Plant response rating, Ragweed [4, 14] | Plant response rating, Ragweed [4, 15] | Plant response rating, Ragweed [4, 16] | Plant response rating, Ragweed [4, 17] | Plant response rating, Ragweed [4, 18] | Plant response rating, Ragweed [4, 19] | Plant response rating, Ragweed [4, 20] | Plant response rating, Corn (corn (Zea mays); [17]) | Plant response rating, Nightshade, E. B. [5, 21] | Plant response rating, Nightshade, E. B. ([5]; 62 g ai/ha, scale 0 to 100) | Plant response rating, Nightshade, E. B. ([5]; 125 g ai/ha, scale 0 to 100) | Plant response rating, Nightshade, E. B. ([5]; 250 g ai/ha, scale 0 to 100) | Plant response rating, Foxtail, Giant [6, 17] | Plant response rating, Foxtail, Giant [6, 18] | Plant response rating, Goosegrass [7, 17] | Plant response rating, Goosegrass [7, 18] | Plant response rating, Kochia (kochia (Kochia scoparia); [13]) | Plant response rating, Pigweed [10, 13] | Plant response rating, Pigweed [10, 14] | Plant response rating, Pigweed [10, 15] | Plant response rating, Pigweed [10, 16] | Plant response rating, Pigweed [10, 18] | Plant response rating, Pigweed [10, 19] | Plant response rating, Pigweed [10, 20] | Plant response rating, Nutsedge, Yellow [12, 13] | Plant response rating, Nutsedge, Yellow [12, 14] | Plant response rating, Nutsedge, Yellow [12, 15] | Plant response rating, Nutsedge, Yellow [12, 16] | Plant response rating, Nutsedge, Yellow [12, 17] | Plant response rating, Nutsedge, Yellow [12, 18] | Plant response rating, Nutsedge, Yellow [12, 19]
100: Plant response rating, Ryegrass, Italian [1, 13] | Plant response rating, Ryegrass, Italian [1, 14] | Plant response rating, Ryegrass, Italian [1, 15] | Plant response rating, Ryegrass, Italian [1, 16] | Plant response rating, Ryegrass, Italian [1, 17] | Plant response rating, Ryegrass, Italian [1, 18] | Plant response rating, Ryegrass, Italian [1, 19] | Plant response rating, Ryegrass, Italian [1, 20] | Plant response rating, Corn (corn (Zea mays); [15]) | Plant response rating, Corn (corn (Zea mays); [16]) | Plant response rating, Corn (corn (Zea mays); [18]) | Plant response rating, Corn (corn (Zea mays); [19]) | Plant response rating, Corn (corn (Zea mays); [20]) | Plant response rating, Foxtail, Giant [6, 15] | Plant response rating, Foxtail, Giant [6, 16] | Plant response rating, Foxtail, Green [8, 15] | Plant response rating, Foxtail, Green [8, 16] | Plant response rating, Foxtail, Green [8, 17] | Plant response rating, Foxtail, Green [8, 18] | Plant response rating, Foxtail, Green [8, 19] | Plant response rating, Foxtail, Green [8, 20] | Plant response rating, Johnsongrass [9, 14] | Plant response rating, Johnsongrass [9, 15] | Plant response rating, Johnsongrass [9, 16] | Plant response rating, Johnsongrass [9, 19] | Plant response rating, Johnsongrass [9, 20] | Plant response rating, Kochia (kochia (Kochia scoparia); [16]) | Plant response rating, Surinam Grass [11, 14] | Plant response rating, Surinam Grass [11, 15] | Plant response rating, Surinam Grass [11, 16] | Plant response rating, Surinam Grass [11, 20]
50: Plant response rating, Goosegrass [7, 19]
45: Plant response rating, Surinam Grass [11, 17]

Cc1cc(-c2ccc(C(F)(F)F)c(F)c2)nn1-c1c(O)c(C(F)(F)F)nn(C)c1=O [Compound 44]
100: Plant response rating, Ryegrass, Italian [1, 13] | Plant response rating, Ryegrass, Italian [1, 23] | Plant response rating, Ryegrass, Italian [1, 18] | Plant response rating, Foxtail, Giant [6, 13] | Plant response rating, Foxtail, Giant [6, 23] | Plant response rating, Foxtail, Green [8, 23] | Plant response rating, Foxtail, Green [8, 17] | Plant response rating, Foxtail, Green [8, 18] | Plant response rating, Johnsongrass [9, 23] | Plant response rating, Kochia (kochia (Kochia scoparia); [18]) | Plant response rating, Surinam Grass [11, 22] | Plant response rating, Surinam Grass [11, 23]
85: Corn plant response rating (corn (Zea mays); postemergence, 0-100 scale) | Plant response rating, Corn (corn (Zea mays); [18])
40: Foxtail, Green plant response rating ([8]; Preemergence, scale 0 to 100)
55: Plant response rating, Corn (corn (Zea mays); [24]) | Plant response rating, Nightshade, E. B. ([5]; 62 g ai/ha, scale 0 to 100) | Johnsongrass plant response rating ([9]; postemergence, 0-100 scale)
0: Plant response rating, Russian Thistle [2, 26] | Plant response rating, Russian Thistle [2, 27] | Plant response rating, Russian Thistle ([2]; 62 g ai/ha, scale 0 to 100) | Russian Thistle plant response rating ([2]; 8 g ai/ha, scale 0 to 100) | Plant response rating, Sunflower [3, 26] | Plant response rating, Sunflower ([3]; 62 g ai/ha, scale 0 to 100) | Sunflower plant response rating ([3]; 8 g ai/ha, scale 0 to 100) | Ragweed plant response rating ([4]; postemergence, 0-100 scale) | Plant response rating, Ragweed [4, 22] | Plant response rating, Ragweed [4, 13] | Plant response rating, Ragweed [4, 23] | Plant response rating, Ragweed [4, 24] | Plant response rating, Ragweed [4, 25] | Ragweed plant response rating ([4]; Preemergence, scale 0 to 100) | Corn plant response rating (corn (Zea mays); Preemergence, scale 0 to 100) | Plant response rating, Nightshade, E. B. [5, 26] | Plant response rating, Nightshade, E. B. [5, 27] | Nightshade, E. B. plant response rating ([5]; 8 g ai/ha, scale 0 to 100) | Plant response rating, Foxtail, Giant [6, 24] | Plant response rating, Foxtail, Giant [6, 17] | Plant response rating, Foxtail, Giant [6, 18] | Foxtail, Giant plant response rating ([6]; Preemergence, scale 0 to 100) | Plant response rating, Goosegrass [7, 24] | Plant response rating, Goosegrass [7, 17] | Plant response rating, Goosegrass [7, 18] | Goosegrass plant response rating ([7]; Preemergence, scale 0 to 100) | Plant response rating, Johnsongrass [9, 24] | Plant response rating, Johnsongrass [9, 17] | Johnsongrass plant response rating ([9]; Preemergence, scale 0 to 100) | Kochia plant response rating (kochia (Kochia scoparia); postemergence, 0-100 scale) | Plant response rating, Kochia (kochia (Kochia scoparia); [22]) | Plant response rating, Kochia (kochia (Kochia scoparia); [13]) | Plant response rating, Kochia (kochia (Kochia scoparia); [23]) | Plant response rating, Kochia (kochia (Kochia scoparia); [24]) | Plant response rating, Kochia (kochia (Kochia scoparia); [17]) | Kochia plant response rating (kochia (Kochia scoparia); Preemergence, scale 0 to 100) | Pigweed plant response rating ([10]; postemergence, 0-100 scale) | Plant response rating, Pigweed [10, 22] | Plant response rating, Pigweed [10, 13] | Plant response rating, Pigweed [10, 23] | Plant response rating, Pigweed [10, 24] | Plant response rating, Pigweed [10, 25] | Plant response rating, Pigweed [10, 18] | Pigweed plant response rating ([10]; Preemergence, scale 0 to 100) | Plant response rating, Surinam Grass [11, 24] | Plant response rating, Surinam Grass [11, 25] | Surinam Grass plant response rating ([11]; Preemergence, scale 0 to 100) | Nutsedge, Yellow plant response rating ([12]; postemergence, 0-100 scale) | Plant response rating, Nutsedge, Yellow [12, 22] | Plant response rating, Nutsedge, Yellow [12, 13] | Plant response rating, Nutsedge, Yellow [12, 23] | Plant response rating, Nutsedge, Yellow [12, 24] | Plant response rating, Nutsedge, Yellow [12, 25] | Plant response rating, Nutsedge, Yellow [12, 18] | Nutsedge, Yellow plant response rating ([12]; Preemergence, scale 0 to 100)
98: Plant response rating, Foxtail, Giant [6, 22] | Plant response rating, Foxtail, Green [8, 24] | Plant response rating, Johnsongrass [9, 13] | Surinam Grass plant response rating ([11]; postemergence, 0-100 scale)
65: Plant response rating, Corn (corn (Zea mays); [17])
60: Goosegrass plant response rating ([7]; postemergence, 0-100 scale) | Plant response rating, Goosegrass [7, 22]
95: Plant response rating, Ryegrass, Italian [1, 22] | Plant response rating, Corn (corn (Zea mays); [22]) | Plant response rating, Corn (corn (Zea mays); [13]) | Plant response rating, Corn (corn (Zea mays); [23]) | Foxtail, Giant plant response rating ([6]; postemergence, 0-100 scale) | Plant response rating, Foxtail, Green [8, 22] | Plant response rating, Foxtail, Green [8, 13] | Plant response rating, Johnsongrass [9, 22] | Plant response rating, Johnsongrass [9, 18]
75: Plant response rating, Goosegrass [7, 13] | Foxtail, Green plant response rating ([8]; postemergence, 0-100 scale)
90: Ryegrass, Italian plant response rating ([1]; postemergence, 0-100 scale) | Plant response rating, Ryegrass, Italian [1, 24] | Plant response rating, Ryegrass, Italian [1, 25] | Plant response rating, Goosegrass [7, 23]
20: Ryegrass, Italian plant response rating ([1]; Preemergence, scale 0 to 100) | Plant response rating, Ragweed [4, 18] | Plant response rating, Surinam Grass ([11]; Preemergence, 62 g ai/ha, 0 to 100 scale, 0 no effect, 100 complete control)
